Results on 16 compounds are retold here after US10407430B2, “Janus kinase 1 selective inhibitor and pharmaceutical use thereof” (YANG JI CHEMICAL CO., LTD., priority 2015, dated 2019).

The nature of series [1]: Pharmacokinetic test, oral or intravenous administration. The format is in vivo. Particulars: mouse, blood, 20 mg/kg, mice. As for the experimental part:
A dose of the compound was about 20 mg/kg, which was orally or intraveneously administered one time, followed by blood collection from the jugular veins of three mice at each of blood sampling intervals, i.e., 0, 0.25 (15 min), 0.5 (30 min), 1, 2, 4, 6, 12, and 24 hours from the administration, and measuring a drug concentration.

For another series, the target named is T1, Human JAK1 (Homo sapiens, UniProt P23458).
T1 construct: purchased Millipore, Germany
T1 sequence (P23458 whole entry): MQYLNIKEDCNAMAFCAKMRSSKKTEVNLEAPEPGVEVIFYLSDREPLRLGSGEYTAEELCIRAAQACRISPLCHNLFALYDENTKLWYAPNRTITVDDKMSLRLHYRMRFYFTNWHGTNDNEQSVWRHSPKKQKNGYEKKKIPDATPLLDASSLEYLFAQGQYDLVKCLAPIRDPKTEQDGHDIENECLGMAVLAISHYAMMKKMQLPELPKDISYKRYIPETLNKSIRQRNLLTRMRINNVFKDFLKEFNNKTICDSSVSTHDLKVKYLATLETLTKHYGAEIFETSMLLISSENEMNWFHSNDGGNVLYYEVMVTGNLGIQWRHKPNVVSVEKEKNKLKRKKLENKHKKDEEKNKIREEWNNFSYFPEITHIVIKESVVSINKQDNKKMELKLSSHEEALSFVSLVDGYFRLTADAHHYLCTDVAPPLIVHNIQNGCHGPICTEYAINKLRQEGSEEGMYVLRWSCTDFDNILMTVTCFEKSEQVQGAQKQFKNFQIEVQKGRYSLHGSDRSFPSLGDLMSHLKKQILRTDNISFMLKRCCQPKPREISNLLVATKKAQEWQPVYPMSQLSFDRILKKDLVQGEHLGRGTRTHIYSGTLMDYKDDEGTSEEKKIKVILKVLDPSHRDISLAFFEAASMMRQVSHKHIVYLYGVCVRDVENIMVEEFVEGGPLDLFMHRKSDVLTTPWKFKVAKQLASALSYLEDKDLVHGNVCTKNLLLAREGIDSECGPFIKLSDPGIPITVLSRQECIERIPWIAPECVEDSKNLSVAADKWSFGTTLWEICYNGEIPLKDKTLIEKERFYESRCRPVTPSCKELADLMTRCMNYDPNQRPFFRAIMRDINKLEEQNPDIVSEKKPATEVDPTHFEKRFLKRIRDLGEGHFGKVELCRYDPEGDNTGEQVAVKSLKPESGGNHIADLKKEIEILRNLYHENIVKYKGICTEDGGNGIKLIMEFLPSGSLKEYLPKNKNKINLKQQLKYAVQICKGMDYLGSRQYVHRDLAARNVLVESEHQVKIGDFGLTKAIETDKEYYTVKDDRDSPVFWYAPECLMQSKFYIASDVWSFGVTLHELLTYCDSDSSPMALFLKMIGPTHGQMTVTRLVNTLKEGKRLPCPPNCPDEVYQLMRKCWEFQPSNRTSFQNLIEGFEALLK
Description: In-vitro kinase inhibition test, JAK1. The format is biochemical. The settings on record: for inhibition at 1 µM: compound at 1 uM, read-out: JAK1 kinase-phosphorylation inhibitory level (% inhibition); for JAK1/JAK2: ratio of % inhibition of JAK1 to JAK2 at 1 uM.

Another series addresses T2, Human TYK2 (Homo sapiens, UniProt P29597).
T2 construct: purchased Millipore, Germany
Description: In-vitro kinase inhibition test, TYK2. The series is classed as biochemical. Particulars: compound at 1 uM; read-out: TYK2 kinase-phosphorylation inhibitory level (% inhibition).

Another series deals with T3, Human JAK3 (Homo sapiens, UniProt P52333).
T3 construct: purchased Millipore, Germany
T3 sequence (P52333 1-1124): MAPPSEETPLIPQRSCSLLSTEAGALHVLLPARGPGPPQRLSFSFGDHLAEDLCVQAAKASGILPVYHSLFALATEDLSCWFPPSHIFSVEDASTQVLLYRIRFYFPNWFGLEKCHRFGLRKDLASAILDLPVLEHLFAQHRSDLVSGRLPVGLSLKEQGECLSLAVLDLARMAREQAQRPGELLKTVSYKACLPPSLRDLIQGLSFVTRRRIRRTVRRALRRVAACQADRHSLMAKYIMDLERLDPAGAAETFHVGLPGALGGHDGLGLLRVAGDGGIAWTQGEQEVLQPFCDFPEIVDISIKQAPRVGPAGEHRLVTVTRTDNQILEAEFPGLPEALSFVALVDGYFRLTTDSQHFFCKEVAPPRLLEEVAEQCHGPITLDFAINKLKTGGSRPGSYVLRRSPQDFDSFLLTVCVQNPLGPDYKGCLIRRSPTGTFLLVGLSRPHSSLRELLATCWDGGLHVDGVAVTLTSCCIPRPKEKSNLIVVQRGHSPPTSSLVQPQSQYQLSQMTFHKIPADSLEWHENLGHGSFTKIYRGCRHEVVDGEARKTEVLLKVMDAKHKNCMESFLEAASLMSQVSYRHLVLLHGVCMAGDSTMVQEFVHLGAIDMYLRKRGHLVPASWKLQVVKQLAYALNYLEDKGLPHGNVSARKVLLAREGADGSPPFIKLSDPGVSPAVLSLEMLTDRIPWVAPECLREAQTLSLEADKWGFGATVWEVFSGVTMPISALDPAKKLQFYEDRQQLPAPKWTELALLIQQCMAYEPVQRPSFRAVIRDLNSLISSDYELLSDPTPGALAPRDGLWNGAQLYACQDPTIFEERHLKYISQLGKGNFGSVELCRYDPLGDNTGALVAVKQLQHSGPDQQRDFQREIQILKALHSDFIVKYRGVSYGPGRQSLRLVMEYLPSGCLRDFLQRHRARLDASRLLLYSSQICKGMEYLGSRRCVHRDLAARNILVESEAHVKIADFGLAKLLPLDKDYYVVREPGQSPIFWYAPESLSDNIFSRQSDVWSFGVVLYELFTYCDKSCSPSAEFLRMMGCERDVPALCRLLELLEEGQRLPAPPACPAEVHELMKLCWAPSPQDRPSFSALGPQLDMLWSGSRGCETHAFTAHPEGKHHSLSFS
The series can be described thus: In-vitro kinase inhibition test, JAK3. The format is biochemical. Particulars: compound at 1 uM; read-out: JAK3 kinase-phosphorylation inhibitory level (% inhibition).

The next series concerns the target T4, Human JAK2 (Homo sapiens, UniProt O60674).
T4 construct: purchased Millipore, Germany
The series can be described thus: In-vitro kinase inhibition test, JAK2. The format is biochemical. The settings on record: compound at 1 uM; read-out: JAK2 kinase-phosphorylation inhibitory level (% inhibition).

The structures appear in SMILES notation.

T2 sequence (P29597 whole entry): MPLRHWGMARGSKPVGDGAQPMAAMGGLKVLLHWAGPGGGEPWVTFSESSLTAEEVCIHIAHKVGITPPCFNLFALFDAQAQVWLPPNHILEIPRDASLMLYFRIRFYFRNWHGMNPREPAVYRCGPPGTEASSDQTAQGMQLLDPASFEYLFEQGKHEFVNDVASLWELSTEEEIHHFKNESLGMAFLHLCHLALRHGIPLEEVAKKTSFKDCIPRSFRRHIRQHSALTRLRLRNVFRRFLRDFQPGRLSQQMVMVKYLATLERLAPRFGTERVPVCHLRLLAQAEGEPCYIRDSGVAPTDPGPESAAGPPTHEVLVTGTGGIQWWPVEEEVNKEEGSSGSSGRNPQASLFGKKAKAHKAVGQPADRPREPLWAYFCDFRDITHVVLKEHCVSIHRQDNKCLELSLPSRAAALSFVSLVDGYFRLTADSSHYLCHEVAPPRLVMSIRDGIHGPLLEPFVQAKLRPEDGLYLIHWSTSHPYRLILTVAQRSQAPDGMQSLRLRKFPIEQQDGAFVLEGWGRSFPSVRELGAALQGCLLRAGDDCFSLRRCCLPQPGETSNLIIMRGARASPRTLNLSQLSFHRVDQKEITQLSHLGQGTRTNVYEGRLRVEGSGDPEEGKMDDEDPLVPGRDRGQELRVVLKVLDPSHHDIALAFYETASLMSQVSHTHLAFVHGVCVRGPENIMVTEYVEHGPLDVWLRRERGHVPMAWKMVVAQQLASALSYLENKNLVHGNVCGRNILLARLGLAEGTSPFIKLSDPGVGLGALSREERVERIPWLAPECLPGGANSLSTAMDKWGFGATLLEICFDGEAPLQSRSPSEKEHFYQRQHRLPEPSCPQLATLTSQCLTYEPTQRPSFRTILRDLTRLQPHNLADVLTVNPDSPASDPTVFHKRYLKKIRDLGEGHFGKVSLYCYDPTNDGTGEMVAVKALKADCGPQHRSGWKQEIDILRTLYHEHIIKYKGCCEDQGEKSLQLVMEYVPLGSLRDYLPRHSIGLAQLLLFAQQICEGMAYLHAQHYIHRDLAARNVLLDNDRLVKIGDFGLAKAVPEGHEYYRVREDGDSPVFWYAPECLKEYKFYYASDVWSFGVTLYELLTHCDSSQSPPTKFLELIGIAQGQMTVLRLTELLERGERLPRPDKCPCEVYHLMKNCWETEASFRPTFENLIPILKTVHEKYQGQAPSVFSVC
T4 sequence (O60674 whole entry): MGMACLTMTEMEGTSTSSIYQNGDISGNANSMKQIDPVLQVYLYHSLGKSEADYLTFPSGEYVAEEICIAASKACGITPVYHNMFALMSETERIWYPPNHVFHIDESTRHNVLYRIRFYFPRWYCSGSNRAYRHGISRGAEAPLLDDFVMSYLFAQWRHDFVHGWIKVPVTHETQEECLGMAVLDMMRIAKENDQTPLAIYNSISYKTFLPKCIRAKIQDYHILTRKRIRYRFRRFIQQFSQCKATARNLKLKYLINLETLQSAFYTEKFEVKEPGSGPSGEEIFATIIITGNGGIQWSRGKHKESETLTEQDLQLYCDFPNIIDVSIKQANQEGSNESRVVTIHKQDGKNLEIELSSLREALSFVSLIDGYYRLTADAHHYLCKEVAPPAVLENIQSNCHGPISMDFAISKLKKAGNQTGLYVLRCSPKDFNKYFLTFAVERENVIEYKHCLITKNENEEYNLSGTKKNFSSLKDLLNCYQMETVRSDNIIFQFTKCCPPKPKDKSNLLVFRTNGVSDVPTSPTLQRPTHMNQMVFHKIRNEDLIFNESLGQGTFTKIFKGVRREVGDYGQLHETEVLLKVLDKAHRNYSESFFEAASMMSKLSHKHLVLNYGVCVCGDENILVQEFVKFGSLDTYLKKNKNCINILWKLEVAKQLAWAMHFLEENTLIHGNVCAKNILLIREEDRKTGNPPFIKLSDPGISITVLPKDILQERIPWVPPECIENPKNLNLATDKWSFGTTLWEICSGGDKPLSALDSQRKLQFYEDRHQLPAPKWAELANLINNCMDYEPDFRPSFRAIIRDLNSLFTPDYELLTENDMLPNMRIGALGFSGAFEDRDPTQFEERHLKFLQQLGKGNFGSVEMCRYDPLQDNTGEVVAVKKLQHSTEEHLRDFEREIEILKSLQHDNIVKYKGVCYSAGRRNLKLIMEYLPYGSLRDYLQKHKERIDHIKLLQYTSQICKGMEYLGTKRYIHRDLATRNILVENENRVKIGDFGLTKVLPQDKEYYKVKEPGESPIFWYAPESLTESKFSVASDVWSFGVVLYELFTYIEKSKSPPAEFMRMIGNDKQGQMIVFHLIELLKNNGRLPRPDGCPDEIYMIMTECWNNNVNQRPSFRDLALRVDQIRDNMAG
Description for Human JAK2: Human-derived JAK1, JAK2, JAK3 and TYK2 (Millipore, Germany) were used as kinases. Each kinase was diluted with an appropriate buffer as described below, and then mixed with reaction reagents.
3-morpholinopropane-1-sulfonic acid (MOPS) and EDTA were dissolved in deionized water at a concentration of 20 mM and 1 mM, respectively, and then 100 μL of β-mercaptoethanol, 10 μL of Brij-35™, 5 mL of glycerol, and 100 mg of bovine serum albumin (BSA), each per 100 mL of the solution, were added to the solution, thereby preparing a dilution buffer for JAK2, JAK3, and TYK2.
Each compound was dissolved in a 100%-DMSO solution at a concentration of about 50 μM. This prepared solution was reacted with reaction reagents in each well of a 96-well plate until a final concentration of the compound reached 1 μM. A detailed experimental method for each kinase is as follows.
After reaction for about 40 minutes at room temperature, the reaction was stopped by adding 5 uL of a 3% (v/v) phosphoric acid solution.
The inhibitory levels (% inhibition) represent a percentage of reduction in phosphorylation activity in each test group with respect to the phosphorylation activity of a corresponding kinase in a negative control group lacking any of the compounds synthesized in the examples. % inhibition=[(Scintillation value of Test compound non-treatment group−Scintillation value of Test compound treatment group)/(Scintillation value of Test compound non-treatment group)]×100

In series [1] (intravenous injection), `CN(c1ncnc2[nH]ccc12)[C@@H]1CCN(C(=O)CC#N)C1.Cl` [Example 51, (R)-3-(3-(methyl(7H-pyrrolo[2,3-d]pyrimidine-4-yl)amino)pyrrolidine-1-yl)-3-oxopropanenitrile hydrochloride] showed an exposure AUC(0-t) of 18900 ng·h/mL, a Cmax of 15500 ng/mL and a half-life of 1.97 h. Besides, in series [1] (oral administration), the AUC(0-t) is 13100 ng·h/mL, the peak level (Cmax) was 4530 ng/mL, the Tmax came out at 0.5 h and the bioavailability came to 69.1%. Besides, the half-life in series [1] (oral administration) is 2.78 h.
On to `CN(c1ncnc2[nH]ccc12)C1CCN(C(=O)CC#N)CC1` [Example 37, 3-(4-(methyl(7H-pyrrolo[2,3-d]pyrimidine-4-yl)amino)piperidine-1-yl)-3-oxopropanenitrile], for which the inhibition at 1 µM on Human JAK1 is 49%; on Human TYK2 it was -3%; on Human JAK3, 8%; on Human JAK2 it was 1%. Further, the JAK1/JAK2 at Human JAK1 is 49.00.
On the same counts, the results for `CN(c1ncnc2[nH]ccc12)[C@@H]1CCN(S(=O)(=O)c2ccccc2F)C1` [Example 15, (R)—N-(1-((2-fluorophenyl)sulfonyl)pyrrolidine-3-yl)-N-methyl-7H-pyrrolo[2,3-d]pyrimidine-4-amine] are 98%, 92%, 25%, 66% and 1.48.
In the case of `Cc1cccc(S(=O)(=O)N2CC[C@@H](N(C)c3ncnc4[nH]ccc34)C2)c1` [Example 24, (R)—N-methyl-N-(1-(m-tolylsulfonyl)pyrrolidine-3-yl)-7H-pyrrolo[2,3-d]pyrimidine-4-amine], the inhibition at 1 µM at Human JAK1 stood at 95%; on Human TYK2, 87%; on Human JAK3, 8%; at Human JAK2, 53%. Moreover, at Human JAK1, the JAK1/JAK2 is 1.79.
For the compound `N#CCC(=O)N1CC[C@@H](N(CC2CC2)c2ncnc3[nH]ccc23)C1` [Example 35, (R)-3-(3-((cyclopropylmethyl)(7H-pyrrolo[2,3-d]pyrimidine-4-yl)amino)pyrrolidine-1-yl)-3-oxopropanenitrile], the inhibition at 1 µM at Human JAK1 was 88%; on Human TYK2, 37%; at Human JAK3, 14%; at Human JAK2 it was 34%. Further, the JAK1/JAK2 on Human JAK1 is reported as 2.59.
Taken in the same sequence, the figures for `CC(C)CC(=O)N1CC[C@@H](N(C)c2ncnc3[nH]ccc23)C1` [Example 5, (R)-3-methyl-1-(3-(methyl(7H-pyrrolo[2,3-d]pyrimidine-4-yl)amino)pyrrolidine-1-yl)butane-1-one] were 93%, 63%, 10%, 13% and 7.15.
Taken in the same sequence, the figures for `CC(C)COC(=O)N1CC[C@@H](N(C)c2ncnc3[nH]ccc23)C1` [Example 6, Isobutyl (R)-3-(methyl(7H-pyrrolo[2,3-d]pyrimidine-4-yl)amino)pyrrolidine-1-carboxylate] were 93%, 34%, 9%, 9% and 10.33.
Taken in the same sequence, the figures for `N#CCC(=O)N1C[C@@H]2CCCN(c3ncnc4[nH]ccc34)[C@@H]2C1` [Example 50, 3-((4aS,7aS)-1-(7H-pyrrolo[2,3-d]pyrimidine-4-yl)octahydro-6H-pyrrolo[3,4-b]pyridine-6-yl)-3-oxopropanenitrile] were 14%, 6%, 1%, -10% and “∞”.
In the case of `CN(c1ncnc2[nH]ccc12)[C@@H]1CCN(S(=O)(=O)c2cccc(F)c2)C1` [Example 16, (R)—N-(1-((3-fluorophenyl)sulfonyl)pyrrolidine-3-yl)-N-methyl-7H-pyrrolo[2,3-d]pyrimidine-4-amine], the inhibition at 1 µM on Human JAK1 was determined as 98%; at Human TYK2, 98%; on Human JAK3 it was 47%; at Human JAK2, 93%. The JAK1/JAK2 at Human JAK1 worked out at 1.05.
As to `CC(C)S(=O)(=O)N1CC[C@@H](N(C)c2ncnc3[nH]ccc23)C1` [Example 12, (R)—N-(1-(isopropylsulfonyl)pyrrolidine-3-yl)-N-methyl-7H-pyrrolo[2,3-d]pyrimidine-4-amine], the inhibition at 1 µM at Human JAK1 amounted to 86%; on Human TYK2, 47%; at Human JAK3 it was 13%; on Human JAK2, 11%. Also, the JAK1/JAK2 on Human JAK1 is 7.82.
As to `C[C@@H]1CCN(S(=O)(=O)c2cccc(C#N)c2)C[C@@H]1N(C)c1ncnc2[nH]ccc12` [Example 42, 3-(((3R,4R)-4-methyl-3-(methyl(7H-pyrrolo[2,3-d]pyrimidine-4-yl)amino)piperidine-1-yl)sulfonyl)benzonitrile], the inhibition at 1 µM at Human JAK1 came to 95%; on Human TYK2 it was 86%; at Human JAK3, 89%; on Human JAK2, 79%. For the same compound, on Human JAK1, the JAK1/JAK2 was 1.20.
On the same counts, the results for `CN(c1ncnc2[nH]ccc12)[C@@H]1CCN(S(C)(=O)=O)C1` [Example 8, (R)—N-methyl-N-(1-(methylsulfonyl)pyrrolidine-3-yl)-7H-pyrrolo[2,3-d]pyrimidine-4-amine] are 91%, 59%, 21%, 7% and 13.00.
Taken in the same sequence, the figures for `COc1ccc(S(=O)(=O)N2CC[C@@H](N(C)c3ncnc4[nH]ccc34)C2)cc1` [Example 26, (R)—N-(1-((4-methoxyphenyl)sulfonyl)pyrrolidine-3-yl)-N-methyl-7H-pyrrolo[2,3-d]pyrimidine-4-amine] were 98%, 71%, 10%, 44% and 2.23.
With `CN(c1ncnc2[nH]ccc12)C1CCN(S(=O)(=O)c2cccc(C#N)c2)CC1` [Example 39, 3-((4-(methyl(7H-pyrrolo[2,3-d]pyrimidine-4-yl)amino)piperidine-1-yl)sulfonyl)benzonitrile], the inhibition at 1 µM came to 87% on Human JAK1, 69% at Human TYK2, 1% on Human JAK3 and 59% on Human JAK2. The JAK1/JAK2 on Human JAK1 came out at 1.47.
Taken in the same sequence, the figures for `N#Cc1cccc(S(=O)(=O)N2CC[C@@H](N(CC3CC3)c3ncnc4[nH]ccc34)C2)c1` [Example 36, (R)-3-((3-((cyclopropylmethyl)(7H-pyrrolo[2,3-d]pyrimidine-4-yl)amino)pyrrolidine-1-yl)sulfonyl)benzonitrile] were 87%, 57%, 10%, 40% and 2.18.
In the case of `CN(c1ncnc2[nH]ccc12)[C@@H]1CCN(S(=O)(=O)c2cn(C)cn2)C1` [Example 13, (R)—N-methyl-N-(1-((1-methyl-1H-imidazole-4-yl)sulfonyl)pyrrolidine-3-yl)-7H-pyrrolo[2,3-d]pyrimidine-4-amine], the inhibition at 1 µM at Human JAK1 was 52%; on Human TYK2, 17%; at Human JAK3 it was 4%; at Human JAK2, 9%. The JAK1/JAK2 on Human JAK1 is 5.78.

Broadly, the AUC(0-t) is exposure summed from dosing to a finite time, without extrapolation to infinity. The Cmax is the maximum level reached in the sampled fluid or tissue. In general, half-life refers to how long it takes for the measured level to halve. Lower therefore signals fast loss. Usually Tmax stands for the time from dosing to the highest level. Broadly, the bioavailability is dose-corrected exposure relative to a reference, in per cent. Low readings indicate poor availability, high ones good availability. In general, inhibition refers to the drop in the measured response relative to a control, in per cent.
